Source: the kinase profiling compilation of Christmann-Franck et al. (2016)

Columns and labels:
Experiment in all cases: KINOMEscan competition binding
Conditions in all cases: compound 10.0 µM
ACVR1 (human) = ACVR1 (human) (UniProt Q04771)
AURKA (human) = AURKA (human) (UniProt O14965)
CAMKK1 (human) = CAMKK1 (human) (UniProt Q8N5S9)
CDC42BPA (human) = CDC42BPA (human) (UniProt Q5VT25)
CDC42BPG (human) = CDC42BPG (human) (UniProt Q6DT37)
CDK2 (human) = CDK2 (human) (UniProt P24941)
CDKL2 (human) = CDKL2 (human) (UniProt Q92772)
CSNK1A1L (human) = CSNK1A1L (human) (UniProt Q8N752)
CSNK1G1 (human) = CSNK1G1 (human) (UniProt Q9HCP0)
CSNK2A2 (human) = CSNK2A2 (human) (UniProt P19784)
DDR2 (human) = DDR2 (human) (UniProt Q16832)
DSTYK (human) = DSTYK (human) (UniProt Q6XUX3)
[1] = system: EGFR (human), P00533 [752-759 del]
[2] = system: EGFR (human), P00533 [A750P; 747-749 del]
EIF2AK2 (human) = EIF2AK2 (human) (UniProt P19525)
EPHA1 (human) = EPHA1 (human) (UniProt P21709)
EPHA6 (human) = EPHA6 (human) (UniProt Q9UF33)
FGFR4 (human) = FGFR4 (human) (UniProt P22455)
FGR (human) = FGR (human) (UniProt P09769)
FLT1 (human) = FLT1 (human) (UniProt P17948)
KIT (human) = KIT (human) (UniProt P10721)
[3] = system: KIT (human), P10721 [L576P]
MAPK14 (human) = MAPK14 (human) (UniProt Q16539)
MAPK7 (human) = MAPK7 (human) (UniProt Q13164)
NEK5 (human) = NEK5 (human) (UniProt Q6P3R8)
NEK6 (human) = NEK6 (human) (UniProt Q9HC98)
NTRK1 (human) = NTRK1 (human) (UniProt P04629)
NUAK2 (human) = NUAK2 (human) (UniProt Q9H093)
PAK6 (human) = PAK6 (human) (UniProt Q9NQU5)
[4] = system: PIK3CA (human), P42336 [M1043I]
PIM1 (human) = PIM1 (human) (UniProt P11309)
PIP4K2B (human) = PIP4K2B (human) (UniProt P78356)
PTK2B (human) = PTK2B (human) (UniProt Q14289)
PTK6 (human) = PTK6 (human) (UniProt Q13882)
RIOK2 (human) = RIOK2 (human) (UniProt Q9BVS4)
RIPK2 (human) = RIPK2 (human) (UniProt O43353)
ROS1 (human) = ROS1 (human) (UniProt P08922)
RPS6KA6 KD2 (human) = RPS6KA6 KD2 (human) (UniProt Q9UK32)
SIK2 (human) = SIK2 (human) (UniProt Q9H0K1)
STK10 (human) = STK10 (human) (UniProt O94804)
STK16 (human) = STK16 (human) (UniProt O75716)

Sequence of AURKA (human) (O14965 whole entry, looked up): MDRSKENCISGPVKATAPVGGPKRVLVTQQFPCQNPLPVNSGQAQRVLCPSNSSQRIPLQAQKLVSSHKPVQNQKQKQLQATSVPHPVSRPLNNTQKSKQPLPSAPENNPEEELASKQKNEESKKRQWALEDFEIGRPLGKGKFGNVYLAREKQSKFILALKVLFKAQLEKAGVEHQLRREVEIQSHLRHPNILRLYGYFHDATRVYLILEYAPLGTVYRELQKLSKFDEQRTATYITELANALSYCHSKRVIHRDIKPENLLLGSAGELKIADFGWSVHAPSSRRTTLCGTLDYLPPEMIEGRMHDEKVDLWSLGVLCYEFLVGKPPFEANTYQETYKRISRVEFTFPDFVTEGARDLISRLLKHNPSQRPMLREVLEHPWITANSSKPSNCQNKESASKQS
Sequence of RIOK2 (human) (Q9BVS4 whole entry, looked up): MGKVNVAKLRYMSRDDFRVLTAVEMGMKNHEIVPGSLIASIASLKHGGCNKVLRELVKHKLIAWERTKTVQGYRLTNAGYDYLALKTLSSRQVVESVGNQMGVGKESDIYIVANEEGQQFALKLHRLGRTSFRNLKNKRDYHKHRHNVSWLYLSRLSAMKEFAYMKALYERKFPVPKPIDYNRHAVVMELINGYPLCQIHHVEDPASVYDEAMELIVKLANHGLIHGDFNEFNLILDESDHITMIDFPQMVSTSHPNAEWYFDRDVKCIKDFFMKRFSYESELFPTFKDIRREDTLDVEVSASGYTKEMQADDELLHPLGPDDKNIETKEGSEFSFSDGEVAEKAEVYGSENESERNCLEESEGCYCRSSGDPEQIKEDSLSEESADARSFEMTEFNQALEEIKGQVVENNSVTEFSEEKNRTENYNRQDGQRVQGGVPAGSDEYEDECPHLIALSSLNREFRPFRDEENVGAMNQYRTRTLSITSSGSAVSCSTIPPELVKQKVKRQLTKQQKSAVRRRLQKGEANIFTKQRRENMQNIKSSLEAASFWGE
Sequence of PAK6 (human) (Q9NQU5 whole entry, looked up): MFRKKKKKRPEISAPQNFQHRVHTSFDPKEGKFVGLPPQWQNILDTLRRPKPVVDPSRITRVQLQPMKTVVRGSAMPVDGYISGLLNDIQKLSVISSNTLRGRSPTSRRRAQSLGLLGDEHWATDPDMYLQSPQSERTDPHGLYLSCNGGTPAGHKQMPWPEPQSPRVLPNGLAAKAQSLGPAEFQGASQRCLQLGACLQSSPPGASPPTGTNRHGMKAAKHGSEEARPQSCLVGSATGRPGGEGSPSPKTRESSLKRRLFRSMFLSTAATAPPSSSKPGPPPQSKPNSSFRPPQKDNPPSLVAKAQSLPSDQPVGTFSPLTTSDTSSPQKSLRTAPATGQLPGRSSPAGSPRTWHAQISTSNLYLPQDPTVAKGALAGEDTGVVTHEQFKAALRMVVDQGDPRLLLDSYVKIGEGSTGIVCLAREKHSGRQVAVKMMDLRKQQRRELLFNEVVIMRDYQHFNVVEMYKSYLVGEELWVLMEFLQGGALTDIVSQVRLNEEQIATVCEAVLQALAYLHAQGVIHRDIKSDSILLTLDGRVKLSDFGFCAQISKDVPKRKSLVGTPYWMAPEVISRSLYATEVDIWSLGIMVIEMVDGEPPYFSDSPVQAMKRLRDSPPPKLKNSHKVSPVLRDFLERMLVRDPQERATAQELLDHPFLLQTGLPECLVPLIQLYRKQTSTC
Sequence of PTK6 (human) (Q13882 whole entry, looked up): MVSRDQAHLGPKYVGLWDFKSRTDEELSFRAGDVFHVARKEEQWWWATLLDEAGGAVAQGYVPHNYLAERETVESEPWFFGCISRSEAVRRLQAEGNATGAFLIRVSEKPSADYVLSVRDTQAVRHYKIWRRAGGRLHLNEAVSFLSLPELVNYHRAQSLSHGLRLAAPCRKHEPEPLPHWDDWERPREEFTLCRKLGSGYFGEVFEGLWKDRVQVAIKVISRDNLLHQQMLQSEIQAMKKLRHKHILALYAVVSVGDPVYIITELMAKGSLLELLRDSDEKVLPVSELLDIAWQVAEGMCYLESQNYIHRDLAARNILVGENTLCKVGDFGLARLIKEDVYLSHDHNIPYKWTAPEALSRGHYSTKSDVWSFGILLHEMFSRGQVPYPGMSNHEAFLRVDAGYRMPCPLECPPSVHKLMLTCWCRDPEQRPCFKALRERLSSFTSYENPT
Sequence of SIK2 (human) (Q9H0K1 whole entry, looked up): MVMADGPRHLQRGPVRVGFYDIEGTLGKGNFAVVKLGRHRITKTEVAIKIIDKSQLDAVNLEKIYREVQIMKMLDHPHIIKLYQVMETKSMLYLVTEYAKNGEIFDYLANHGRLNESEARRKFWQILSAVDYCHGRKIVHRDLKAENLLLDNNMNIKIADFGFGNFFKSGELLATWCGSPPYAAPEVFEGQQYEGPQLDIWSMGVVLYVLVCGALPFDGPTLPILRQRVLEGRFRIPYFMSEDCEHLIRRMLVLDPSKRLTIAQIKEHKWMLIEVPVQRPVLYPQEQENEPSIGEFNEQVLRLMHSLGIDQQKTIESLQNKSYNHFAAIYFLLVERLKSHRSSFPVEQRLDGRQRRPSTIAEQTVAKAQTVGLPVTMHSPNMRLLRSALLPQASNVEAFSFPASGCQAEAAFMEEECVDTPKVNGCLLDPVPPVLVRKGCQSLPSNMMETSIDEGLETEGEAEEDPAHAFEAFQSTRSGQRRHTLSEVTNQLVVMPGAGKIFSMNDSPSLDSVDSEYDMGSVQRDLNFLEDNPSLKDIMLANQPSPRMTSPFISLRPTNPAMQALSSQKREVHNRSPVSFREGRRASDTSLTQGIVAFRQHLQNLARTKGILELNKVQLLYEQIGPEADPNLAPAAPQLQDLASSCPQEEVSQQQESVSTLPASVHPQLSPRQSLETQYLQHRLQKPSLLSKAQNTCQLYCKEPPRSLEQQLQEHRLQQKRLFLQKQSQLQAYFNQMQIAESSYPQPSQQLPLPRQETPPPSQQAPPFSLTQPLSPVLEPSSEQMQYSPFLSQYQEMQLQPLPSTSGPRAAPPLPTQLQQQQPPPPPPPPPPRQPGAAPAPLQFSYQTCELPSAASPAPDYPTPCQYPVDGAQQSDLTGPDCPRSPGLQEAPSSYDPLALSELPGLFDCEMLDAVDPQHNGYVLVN
Sequence of FLT1 (human) (P17948 whole entry, looked up): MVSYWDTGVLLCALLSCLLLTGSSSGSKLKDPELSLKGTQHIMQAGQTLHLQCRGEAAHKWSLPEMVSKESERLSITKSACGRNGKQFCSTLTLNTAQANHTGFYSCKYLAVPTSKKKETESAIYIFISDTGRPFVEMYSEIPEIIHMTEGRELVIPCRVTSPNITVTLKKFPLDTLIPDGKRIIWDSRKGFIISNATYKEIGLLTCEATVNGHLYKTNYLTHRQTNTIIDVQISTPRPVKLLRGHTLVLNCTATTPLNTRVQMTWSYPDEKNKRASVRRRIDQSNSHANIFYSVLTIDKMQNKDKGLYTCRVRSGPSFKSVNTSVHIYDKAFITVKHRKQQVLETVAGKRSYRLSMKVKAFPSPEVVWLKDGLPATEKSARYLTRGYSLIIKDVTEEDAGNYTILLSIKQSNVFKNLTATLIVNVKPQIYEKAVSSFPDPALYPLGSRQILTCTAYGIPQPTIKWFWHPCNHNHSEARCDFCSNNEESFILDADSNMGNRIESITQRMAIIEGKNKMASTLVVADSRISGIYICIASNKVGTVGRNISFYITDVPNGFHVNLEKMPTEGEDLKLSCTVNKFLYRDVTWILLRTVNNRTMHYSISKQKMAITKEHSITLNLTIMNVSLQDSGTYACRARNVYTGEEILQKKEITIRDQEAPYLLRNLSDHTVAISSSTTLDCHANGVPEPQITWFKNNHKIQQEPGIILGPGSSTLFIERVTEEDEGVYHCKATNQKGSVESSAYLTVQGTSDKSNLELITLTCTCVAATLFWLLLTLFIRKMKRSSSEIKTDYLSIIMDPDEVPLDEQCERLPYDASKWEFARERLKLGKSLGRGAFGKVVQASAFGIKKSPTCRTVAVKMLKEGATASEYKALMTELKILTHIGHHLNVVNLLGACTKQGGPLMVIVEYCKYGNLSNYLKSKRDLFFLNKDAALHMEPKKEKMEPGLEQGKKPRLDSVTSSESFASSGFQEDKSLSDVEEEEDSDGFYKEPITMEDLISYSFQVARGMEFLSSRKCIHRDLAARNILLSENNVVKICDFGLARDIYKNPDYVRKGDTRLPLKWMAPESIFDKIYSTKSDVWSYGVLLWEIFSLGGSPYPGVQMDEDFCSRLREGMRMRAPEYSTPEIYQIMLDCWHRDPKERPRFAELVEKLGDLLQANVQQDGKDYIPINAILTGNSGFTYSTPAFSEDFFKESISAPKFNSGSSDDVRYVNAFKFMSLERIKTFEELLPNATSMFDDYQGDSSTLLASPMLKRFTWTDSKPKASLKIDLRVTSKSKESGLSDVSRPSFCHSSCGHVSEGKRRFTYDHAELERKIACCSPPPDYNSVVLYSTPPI
Sequence of ACVR1 (human) (Q04771 whole entry, looked up): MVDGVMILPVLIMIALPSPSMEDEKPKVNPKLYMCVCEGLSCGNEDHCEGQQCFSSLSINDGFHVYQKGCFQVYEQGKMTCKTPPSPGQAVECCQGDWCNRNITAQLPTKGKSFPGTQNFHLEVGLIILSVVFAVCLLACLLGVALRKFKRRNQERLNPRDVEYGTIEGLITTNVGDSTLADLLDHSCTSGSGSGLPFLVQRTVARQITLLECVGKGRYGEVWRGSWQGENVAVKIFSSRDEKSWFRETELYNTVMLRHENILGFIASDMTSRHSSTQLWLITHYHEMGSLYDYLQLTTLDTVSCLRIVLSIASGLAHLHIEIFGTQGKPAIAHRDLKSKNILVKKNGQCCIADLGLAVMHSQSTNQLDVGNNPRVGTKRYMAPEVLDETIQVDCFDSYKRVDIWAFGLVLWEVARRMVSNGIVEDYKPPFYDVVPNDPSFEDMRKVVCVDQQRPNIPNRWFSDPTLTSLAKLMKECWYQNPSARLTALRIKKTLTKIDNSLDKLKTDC

COC(=O)Nc1ccc(-c2nc(N3CCOCC3)c3cnn(C4CCN(C(=O)OC)CC4)c3n2)cc1
kinase still bound, per cent of control (ACVR1 (human)): 100% | kinase still bound, per cent of control (AURKA (human)): 85% | kinase still bound, per cent of control (CAMKK1 (human)): 100% | kinase still bound, per cent of control (CDC42BPA (human)): 100% | kinase still bound, per cent of control (CDC42BPG (human)): 100% | per cent of control (CDK2 (human)): 91% | per cent of control (CDKL2 (human)): 94% | kinase still bound, per cent of control (CSNK1A1L (human)): 91% | kinase still bound, per cent of control (CSNK1G1 (human)): 100% | kinase still bound, per cent of control (CSNK2A2 (human)): 83% | kinase still bound, per cent of control (DDR2 (human)): 100% | kinase still bound, per cent of control (DSTYK (human)): 100% | kinase still bound, per cent of control [1]: 100% | kinase still bound, per cent of control [2]: 88% | kinase still bound, per cent of control (EIF2AK2 (human)): 100% | kinase still bound, per cent of control (EPHA1 (human)): 100% | kinase still bound, per cent of control (EPHA6 (human)): 90% | kinase still bound, per cent of control (FGFR4 (human)): 100% | kinase still bound, per cent of control (FGR (human)): 96% | kinase still bound, per cent of control (FLT1 (human)): 100% | kinase still bound, per cent of control (KIT (human)): 100% | kinase still bound, per cent of control [3]: 100% | kinase still bound, per cent of control (MAPK14 (human)): 80% | kinase still bound, per cent of control (MAPK7 (human)): 100% | kinase still bound, per cent of control (NEK5 (human)): 100% | kinase still bound, per cent of control (NEK6 (human)): 100% | kinase still bound, per cent of control (NTRK1 (human)): 71% | kinase still bound, per cent of control (NUAK2 (human)): 84% | kinase still bound, per cent of control (PAK6 (human)): 100% | kinase still bound, per cent of control [4]: 6.8% | kinase still bound, per cent of control (PIM1 (human)): 100% | kinase still bound, per cent of control (PIP4K2B (human)): 100% | kinase still bound, per cent of control (PTK2B (human)): 92% | kinase still bound, per cent of control (PTK6 (human)): 88% | kinase still bound, per cent of control (RIOK2 (human)): 79% | kinase still bound, per cent of control (RIPK2 (human)): 65% | kinase still bound, per cent of control (ROS1 (human)): 76% | kinase still bound, per cent of control (RPS6KA6 KD2 (human)): 96% | kinase still bound, per cent of control (SIK2 (human)): 100% | kinase still bound, per cent of control (STK10 (human)): 100% | kinase still bound, per cent of control (STK16 (human)): 77%

CC(C)n1nc(-c2cc3cc(O)ccc3[nH]2)c2c(N)ncnc21
kinase still bound, per cent of control (ACVR1 (human)): 0.1% | kinase still bound, per cent of control (AURKA (human)): 100% | kinase still bound, per cent of control (CAMKK1 (human)): 49% | kinase still bound, per cent of control (CDC42BPA (human)): 74% | kinase still bound, per cent of control (CDC42BPG (human)): 86% | per cent of control (CDK2 (human)): 69% | per cent of control (CDKL2 (human)): 75% | kinase still bound, per cent of control (CSNK2A2 (human)): 3.5% | kinase still bound, per cent of control (DDR2 (human)): 11% | kinase still bound, per cent of control (DSTYK (human)): 5.8% | kinase still bound, per cent of control (EIF2AK2 (human)): 48% | kinase still bound, per cent of control (EPHA1 (human)): 2.7% | kinase still bound, per cent of control (EPHA6 (human)): 5.2% | kinase still bound, per cent of control (FGFR4 (human)): 12% | kinase still bound, per cent of control (FGR (human)): 5.6% | kinase still bound, per cent of control (FLT1 (human)): 25% | kinase still bound, per cent of control (KIT (human)): 0.8% | kinase still bound, per cent of control [3]: 0.8% | kinase still bound, per cent of control (MAPK14 (human)): 95% | kinase still bound, per cent of control (MAPK7 (human)): 100% | kinase still bound, per cent of control (NEK5 (human)): 86% | kinase still bound, per cent of control (NEK6 (human)): 100% | kinase still bound, per cent of control (NTRK1 (human)): 46% | kinase still bound, per cent of control (NUAK2 (human)): 9.2% | kinase still bound, per cent of control (PAK6 (human)): 23% | kinase still bound, per cent of control (PIM1 (human)): 26% | kinase still bound, per cent of control (PIP4K2B (human)): 55% | kinase still bound, per cent of control (PTK2B (human)): 100% | kinase still bound, per cent of control (PTK6 (human)): 32% | kinase still bound, per cent of control (RIOK2 (human)): 38% | kinase still bound, per cent of control (RIPK2 (human)): 0.8% | kinase still bound, per cent of control (ROS1 (human)): 100% | kinase still bound, per cent of control (RPS6KA6 KD2 (human)): 47% | kinase still bound, per cent of control (SIK2 (human)): 9.4% | kinase still bound, per cent of control (STK10 (human)): 0.5% | kinase still bound, per cent of control (STK16 (human)): 34%

CCC(=O)N1CCN(c2ccc(-n3c(=O)ccc4cnc5ccc(-c6cnc7ccccc7c6)cc5c43)cc2C(F)(F)F)CC1
kinase still bound, per cent of control (ACVR1 (human)): 28% | kinase still bound, per cent of control (AURKA (human)): 100% | kinase still bound, per cent of control (CAMKK1 (human)): 80% | kinase still bound, per cent of control (CDC42BPA (human)): 0.65% | kinase still bound, per cent of control (CDC42BPG (human)): 1.6% | per cent of control (CDK2 (human)): 6.2% | per cent of control (CDKL2 (human)): 58% | kinase still bound, per cent of control (CSNK1A1L (human)): 81% | kinase still bound, per cent of control (CSNK1G1 (human)): 100% | kinase still bound, per cent of control (CSNK2A2 (human)): 11% | kinase still bound, per cent of control (DDR2 (human)): 100% | kinase still bound, per cent of control (DSTYK (human)): 28% | kinase still bound, per cent of control [1]: 84% | kinase still bound, per cent of control [2]: 100% | kinase still bound, per cent of control (EIF2AK2 (human)): 88% | kinase still bound, per cent of control (EPHA1 (human)): 62% | kinase still bound, per cent of control (EPHA6 (human)): 75% | kinase still bound, per cent of control (FGFR4 (human)): 21% | kinase still bound, per cent of control (FGR (human)): 78% | kinase still bound, per cent of control (FLT1 (human)): 79% | kinase still bound, per cent of control [3]: 48% | kinase still bound, per cent of control (MAPK14 (human)): 90% | kinase still bound, per cent of control (MAPK7 (human)): 100% | kinase still bound, per cent of control (NEK5 (human)): 5.8% | kinase still bound, per cent of control (NEK6 (human)): 99% | kinase still bound, per cent of control (NTRK1 (human)): 64% | kinase still bound, per cent of control (NUAK2 (human)): 100% | kinase still bound, per cent of control (PAK6 (human)): 77% | kinase still bound, per cent of control [4]: 8.6% | kinase still bound, per cent of control (PIM1 (human)): 80% | kinase still bound, per cent of control (PIP4K2B (human)): 100% | kinase still bound, per cent of control (PTK2B (human)): 100% | kinase still bound, per cent of control (PTK6 (human)): 51% | kinase still bound, per cent of control (RIOK2 (human)): 24% | kinase still bound, per cent of control (RIPK2 (human)): 44% | kinase still bound, per cent of control (ROS1 (human)): 71% | kinase still bound, per cent of control (RPS6KA6 KD2 (human)): 86% | kinase still bound, per cent of control (SIK2 (human)): 23% | kinase still bound, per cent of control (STK10 (human)): 79% | kinase still bound, per cent of control (STK16 (human)): 18%
